What was measured:
[1] = molecular target: CDK1 (Homo sapiens, UniProt P06493); test: Gel-based ABPP, isoform specificity on CDK1; assay type: binding; details: dose-dependent treatment
Description: Activity-based protein profiling (ABPP) was performed as follows. CDK4 was diluted in PBS to 50 nM, then 50 μL was added to each well of a 96-well PCR plate. Ligands were dissolved fresh in DMSO to 5 μM, and 1 μL was added so each well contained a unique ligand at the indicated concentration. Wells were mixed and allowed to incubate 1 h at 23° C. Ligands were then chased with fresh Compound 301 with 1 μL of 5 μM added to each well (100 nM final), wells mixed and allowed to incubate 1 h at 23° C. Excess oxaziridine was quenched with N-acetyl methionine via addition of 1 μL of 10 mM DMSO stock (200 μM final), wells mixed and allowed to incubate 1 h at 23° C. A stock was prepared 1:5 of 12.5 μM DBCO-Cy3 in DMSO: 1.2% SDS/PBS. To each well was added 6 μL of this stock, the wells mixed and allowed to incubate overnight protected from light at 23° C. The next morning 30 μL of 4×Laemmli's buffer containing 10% BME was added to each well. The plate was sealed and brought to 95° C. for 6 min. Samples were loaded and separated on precast 4-20% TGX gels and scanned by ChemiDoc MP for measuring in-gel fluorescence. After that, the total protein level on the gel was assayed by silver staining according to the manufacturer's protocol and scanned by ChemiDoc MP.
The isoform specificity was tested with two closely-related congeners, CDK1 and CDK6.

[2] = test system: CDK4; test: Competition and pulldown of Compound 300/Compound 148 in CDK4-overexpressing MCF-7 lysate; assay type: binding, human; details: varying Compound 148 prior to 500 μM Compound 300, CDK4 overexpression
Description: MCF-7 cells were grown to 40% confluency in 3 mL DMEM media (Gibco) containing 10% (v/v) FBS in a 6-well chamber at 37° C., 5% CO2. Transfection was then performed as per Lipofectamine 2000 protocol (Invitrogen). Briefly, 0 or 2.5 μg of pcDNA3.1(+)-FLAG-TEV-CDK4 expression construct was introduced at 0:0, 2:1 and 3:1 transfection reagent:DNA. The lipid-DNA complex was incubated for 30 mins at 23° C. in Opti-MEM media (Gibco). Then, 250 μL complex was added to 2.75 mL DMEM containing no FBS. 3 mL DMEM+DNA was added to each well, while control wells received DMEM only. Cells were incubated for 6H at 37° C., 5% CO2. The media was then aspirated, and cells were given 3 mL DMEM+10% FBS and left to incubate for an additional 30H at 37° C., 5% CO2. Cells were washed 3× in 500 μL ice-cold PBS then harvested by scraping in 200 μL ice-cold PBS+1% Triton X-100 containing EDTA-free protease inhibitors (Roche). Cells were lysed at 4° C. for 30 mins while rocking. Lysate was clarified by centrifugation at 10,000×g at 4° C. for 15 mins. The supernatant was then transferred to a fresh prechilled 1.5 mL microcentrifuge tube. Protein concentration was normalized to 2.0 mg/mL via BCA assay (Pierce; cat no. 23225). […] CDK4 expression was quantified by densitometry (ImageJ) and normalized to the actin loading control. […]

Sequence of CDK1 (P06493 whole entry, canonical isoform): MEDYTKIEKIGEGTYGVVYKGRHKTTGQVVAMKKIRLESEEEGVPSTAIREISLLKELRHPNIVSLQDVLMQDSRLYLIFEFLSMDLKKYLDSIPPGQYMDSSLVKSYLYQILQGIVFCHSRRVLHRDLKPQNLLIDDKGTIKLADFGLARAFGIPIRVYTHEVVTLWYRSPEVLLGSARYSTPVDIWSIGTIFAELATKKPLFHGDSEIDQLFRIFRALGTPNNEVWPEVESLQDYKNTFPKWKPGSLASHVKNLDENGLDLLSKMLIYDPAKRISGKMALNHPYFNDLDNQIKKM

- labeling against CDK1 by gel analysis [1]: no dose-dependent labeling
SMILES: O=C(N1CC2COCC2C1)N1OC1c1ccccc1 (centres unmarked) [Compound 148]
- CDK4 signal in eluted proteins after pulldown (competition with Compound 300) [2]: dose-dependent decrease in signal in eluted proteins
